Our source for the IC50 values is ChEMBL document CHEMBL6103604, “Novel Bicyclic Amines as CDK2 Inhibitors for Treating Metastatic Breast Cancer or Metastatic Lung Cancer” (ACS Med Chem Lett, 2025).

The test concerns the target Cyclin-dependent kinase 2/cyclin E1 (Homo sapiens, UniProt P24941). Kind of test: Inhibition of N-terminal GST-tagged wild-type full-length human CDK2 (1 to 298 residues)/FLAG-tagged human Cyclin E1 (1 to 410 residues) extracted from baculovirus infected Sf21 cells using ULight-labeled eIF4E-binding protein-1 as substrate incubated for 60 mins in the presence of ATP by HTRF assay. In general terms: In TR-FRET formats the signal depends on donor and acceptor labels being close together.

On to `C[C@@H](Oc1c(-c2cn[nH]c2)ccn2nc(NC3CCOCC3)nc12)C(F)F`, for which the IC50 (usually the concentration at which inhibition is half-maximal) was no more than 10 nM.
With `C[C@@H](Oc1c(-c2cn[nH]c2)ccn2nc(NC3CCOCC3)nc12)C(F)(F)F` the figure was no more than 10 nM; with `CC(C)Oc1c(-c2cn[nH]c2)ccn2nc(NC3CCOCC3)nc12`, no more than 10 nM; with `CC(C)Oc1c(-c2cn[nH]c2)ncn2nc(NC3CCOCC3)nc12`, no more than 10 nM.
With `C[C@@H](Oc1c(-c2cn[nH]c2)ncn2nc(NC3CCOCC3)nc12)C(F)F` the figure was no more than 10 nM; with `C[C@@H](Oc1c(-c2cn[nH]c2)ncn2nc(NC3CCOCC3)nc12)C(F)(F)F`, no more than 10 nM.
